Reference: patent US11584742B2 (MASARYKOVA UNIVERZITA, priority 2018, dated 2023)

Assays:
MRE11 = biological target: T1, MRE11 (Homo sapiens, UniProt P49959); assay: HTS nuclease assay (cleavage of CY5/BBQ-quenched 5' overhang DNA substrate); assay type: biochemical; details: in vitro HTS nuclease assay; 18 nM MRE11, 40 nM DNA substrate; analysis at t=4 h
T1 sequence (P49959 1-708): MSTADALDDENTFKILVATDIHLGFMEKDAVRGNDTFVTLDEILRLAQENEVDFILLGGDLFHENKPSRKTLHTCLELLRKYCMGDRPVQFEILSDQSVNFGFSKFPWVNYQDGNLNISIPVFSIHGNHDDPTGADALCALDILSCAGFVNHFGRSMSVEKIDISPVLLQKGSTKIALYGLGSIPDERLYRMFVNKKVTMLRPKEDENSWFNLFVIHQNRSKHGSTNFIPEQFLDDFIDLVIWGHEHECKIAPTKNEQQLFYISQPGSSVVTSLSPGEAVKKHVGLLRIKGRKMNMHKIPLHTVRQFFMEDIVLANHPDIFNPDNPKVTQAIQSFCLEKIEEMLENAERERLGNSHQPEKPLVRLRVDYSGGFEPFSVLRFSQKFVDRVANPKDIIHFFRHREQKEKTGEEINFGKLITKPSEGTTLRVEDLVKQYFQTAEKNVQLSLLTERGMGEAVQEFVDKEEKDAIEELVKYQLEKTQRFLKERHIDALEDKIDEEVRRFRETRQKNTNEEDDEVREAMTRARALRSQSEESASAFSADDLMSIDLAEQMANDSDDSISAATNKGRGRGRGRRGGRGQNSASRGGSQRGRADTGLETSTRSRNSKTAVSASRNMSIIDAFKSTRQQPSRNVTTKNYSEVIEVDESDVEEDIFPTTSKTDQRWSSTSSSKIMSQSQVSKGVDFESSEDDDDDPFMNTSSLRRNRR
Protocol: DNA Substrate Preparation
The DNA substrate is prepared by mixing the oligonucleotides listed below in a 1:1 ratio to reach a final concentration of 6 μM in a buffer containing 50 mM Tris pH 7.5, 100 mM NaCl and 8 mM MgCl2.
This substrate is a 5′ overhang, which is a preferred substrate of MRE11. […] The fluorescence increases upon substrate cleavage by MRE11, when separation of the two labels occur.
The conditions of the assay are as follows:
Total reaction volume: 5 μL
DNA substrate concentration in the reaction: 40 nM
Inhibitor concentration range tested: 7 nM-50 μM
Each plate contains a series of high and low signal control wells, where no compound is added:
High signal: MRE11+DNA substrate
Low signal: DNA substrate only
These are used during data evaluation.
Two extra assay controls:
1) To check whether unwinding of DNA by the compounds alone occurs.
The DNA substrate [CY5+BBQ(650)] is mixed with the compounds with no protein present.
The CY5 single stranded oligo is mixed with the compounds with no protein present.
The layout of the plates is created by the in-house software (CZ-Openscreen Prague) and this information is transferred to the robotic HTS station.
The reaction is started by the addition of DNA and the reaction time is counted from that moment, including a 15 min delay. Ten timepoints are measured:
The assay data analysis was performed at t=4 h. This corresponds to the time when the reaction is close to its maximum.
The data analysis was performed using the in-house software to obtain IC50 for each compound.

DR-GFP U2OS cells = assay: HR assay (GFP fluorescence after I-SceI transfection, flow cytometry); assay type: cell-based; details: Homo sapiens, inhibitor at 25 μM, 72 hours after transfection
Protocol: DR-GFP U2OS cells (Methods in Molecular Biology 2012, 920, 379.) were transfected with 2.5 μg of I-SceI-expressing pCAGGS vector and treated with the inhibitors at 25 μM concentration. 72 hours after the transfection, the cells were trypsinized and resuspended in 3% BSA in PBS. GFP fluorescence detection was carried out using a BD FACSVerse flow cytometer and data analyzed with FlowJo software.

Structure (SMILES) | IC50 (MRE11) | inhibition at 25 µM (DR-GFP U2OS cells)
COC(=O)c1ccc(-c2csc(NC(=O)/C(C#N)=C/c3ccc(O)c(O)c3)n2)cc1 [Preparative Example 189, Methyl (E)-4-(2-(2-cyano-3-(3,4-dihydroxyphenyl)acrylamido)thiazol-4-yl)benzoate] | < 2 µM | 50 to 75%
CC(C)(C)c1cccc(-c2csc(NC(=O)/C(C#N)=C/c3ccc(O)c(O)c3)n2)c1 [Preparative Example 247, (E)-N-(4-(3-(tert-butyl)phenyl)thiazol-2-yl)-2-cyano-3-(3,4-dihydroxyphenyl)acrylamide] | 2 to 10 µM | 50 to 75%
COc1ccc(-c2csc(NC(=O)/C(C#N)=C/c3ccc(O)c(O)c3)n2)cc1C1CC1 [Preparative Example 198, (E)-2-cyano-N-(4-(3-cyclopropyl-4-methoxyphenyl)thiazol-2-yl)-3-(3,4-dihydroxyphenyl)acrylamide] | < 2 µM | > 75%
N#C/C(=C\c1ccc(O)c([N+](=O)[O-])c1)C(=O)Nc1nc(-c2ccccc2)cs1 [Preparative Example 208, (E)-2-cyano-3-(4-hydroxy-3-nitrophenyl)-N-(4-phenylthiazol-2-yl)acrylamide] | 10 to 90 µM | 50 to 75%
N#C/C(=C\c1ccc2[nH]c(=O)[nH]c2c1)C(=O)Nc1nc(-c2ccccc2)cs1 [Preparative Example 216, (E)-2-cyano-3-(2-oxo-2,3-dihydro-1H-benzo[d]imidazol-5-yl)-N-(4-phenylthiazol-2-yl)acrylamide] | 10 to 90 µM | < 50%
Cc1cccnc1-c1csc(NC(=O)/C(C#N)=C/c2ccc(O)c(O)c2)n1 [Preparative Example 239, (E)-2-cyano-3-(3,4-dihydroxyphenyl)-N-(4-(3-methylpyridin-2-yl)thiazol-2-yl)acrylamide] | < 2 µM | > 75%
COc1cc(/C=C(\C#N)C(=O)Nc2nc(-c3ccccc3)cs2)cc(F)c1O [Preparative Example 203, (E)-2-cyano-3-(3-fluoro-4-hydroxy-5-methoxyphenyl)-N-(4-phenylthiazol-2-yl)acrylamide] | 2 to 10 µM | < 50%
N#C/C(=C\c1ccc(O)c(O)c1)C(=O)Nc1nc(-c2ccc(F)cc2)cs1 [Preparative Example 187, (E)-2-cyano-3-(3,4-dihydroxyphenyl)-N-(4-(4-fluorophenyl)thiazol-2-yl)acrylamide] | < 2 µM | > 75%
N#C/C(=C\c1ccc(O)c(O)c1)C(=O)Nc1nc(-c2ccccc2Br)cs1 [Preparative Example 170, (E)-N-(4-(2-bromophenyl)thiazol-2-yl)-2-cyano-3-(3,4-dihydroxyphenyl)acrylamide] | < 2 µM | 50 to 75%
N#C/C(=C\c1ccc(O)c(O)c1)C(=O)Nc1nc(-c2cccc(F)c2)cs1 [Preparative Example 236, (E)-2-cyano-3-(3,4-dihydroxyphenyl)-N-(4-(3-fluorophenyl)thiazol-2-yl)acrylamide] | < 2 µM | 50 to 75%
Cc1ccc(-c2csc(NC(=O)/C(C#N)=C/c3ccc(O)c(O)c3)n2)cn1 [Preparative Example 232, (E)-2-cyano-3-(3,4-dihydroxyphenyl)-N-(4-(6-methylpyridin-3-yl)thiazol-2-yl)acrylamide] | < 2 µM | < 50%
N#C/C(=C\c1ccc(O)c(O)c1)C(=O)Nc1nc(-c2ccc(Oc3ccccc3)cc2)cs1 [Preparative Example 172, (E)-2-cyano-3-(3,4-dihydroxyphenyl)-N-(4-(4-phenoxyphenyl)thiazol-2-yl)acrylamide] | 2 to 10 µM | > 75%
N#C/C(=C\c1ccc2cn[nH]c2c1)C(=O)Nc1nc(-c2ccccc2)cs1 [Preparative Example 205, (E)-2-cyano-3-(1H-indazol-6-yl)-N-(4-phenylthiazol-2-yl)acrylamide] | 2 to 10 µM | < 50%
N#C/C(=C\c1ccc(O)c(O)c1)C(=O)Nc1nc(-c2ccccc2)c(-c2cnccn2)s1 [Preparative Example 238, (E)-2-cyano-3-(3,4-dihydroxyphenyl)-N-(4-phenyl-5-(pyrazin-2-yl)thiazol-2-yl)acrylamide] | < 2 µM | 50 to 75%
N#C/C(=C\c1cccc(C(=O)O)c1)C(=O)Nc1nc(-c2ccccc2)cs1 [Preparative Example 210, (E)-3-(2-cyano-3-oxo-3-((4-phenylthiazol-2-yl)amino)prop-1-en-1-yl)benzoic acid] | 10 to 90 µM | < 50%
N#C/C(=C\c1ccc(O)c(O)c1)C(=O)Nc1nc2c(s1)CCCC2 [Preparative Example 191] | < 2 µM | < 50%
CC(C)(C)c1csc(NC(=O)/C(C#N)=C/c2ccc(O)c(O)c2)n1 [Preparative Example 199, (E)-N-(4-(tert-butyl)thiazol-2-yl)-2-cyano-3-(3,4-dihydroxyphenyl)acrylamide] | < 2 µM | 50 to 75%
N#C/C(=C\c1ccc(O)c(O)c1)C(=O)Nc1nc(-c2cccc(C#N)c2)cs1 [Preparative Example 180, (E)-2-cyano-N-(4-(3-cyanophenyl)thiazol-2-yl)-3-(3,4-dihydroxyphenyl)acrylamide] | < 2 µM | 50 to 75%
N#C/C(=C\c1ccc(O)c(O)c1)C(=O)Nc1nc(-c2ccc(N3CCOCC3)cc2)cs1 [Preparative Example 178] | < 2 µM | 50 to 75%
N#C/C(=C\c1ccc2c(c1)OCC(=O)N2)C(=O)Nc1nc(-c2ccccc2)cs1 [Preparative Example 220, (E)-2-cyano-3-(3-oxo-3,4-dihydro-2H-benzo[b][1,4]oxazin-7-yl)-N-(4-phenylthiazol-2-yl)acrylamide] | 10 to 90 µM | 50 to 75%
Cc1ccc(-c2csc(NC(=O)/C(C#N)=C/c3cc(Cl)c(O)c(Cl)c3)n2)cc1 [Preparative Example 168] | < 2 µM | > 75%
N#C/C(=C\c1ccc(O)cc1F)C(=O)Nc1nc(-c2ccccc2)cs1 [Preparative Example 226, (E)-2-cyano-3-(2-fluoro-4-hydroxyphenyl)-N-(4-phenylthiazol-2-yl)acrylamide] | 10 to 90 µM | > 75%
CN(C)C(=O)c1ccc(-c2csc(NC(=O)/C(C#N)=C/c3ccc(O)c(O)c3)n2)cc1 [Preparative Example 181, (E)-4(2-(2-cyano-3-(3,4-dihydroxyphenyl)acrylamido)thiazol-4-yl)-N,N-dimethylbenzamide] | < 2 µM | < 50%
Cc1cc(O)ccc1/C=C(\C#N)C(=O)Nc1nc(-c2ccccc2)cs1 [Preparative Example 225, (E)-2-cyano-3-(4-hydroxy-2-methylphenyl)-N-(4-phenylthiazol-2-yl)acrylamide] | 10 to 90 µM | < 50%
N#C/C(=C\c1cccc(C(F)(F)F)c1)C(=O)Nc1nc(-c2ccccc2)cs1 [Preparative Example 231, (E)-2-cyano-N-(4-phenylthiazol-2-yl)-3-(3-(trifluoromethyl)phenyl)acrylamide] | 2 to 10 µM | < 50%
N#C/C(=C\c1ccc(F)c(F)c1)C(=O)Nc1nc(-c2ccccc2)cs1 [Preparative Example 213, (E)-2-cyano-3-(3,4-difluorophenyl)-N-(4-phenylthiazol-2-yl)acrylamide] | 10 to 90 µM | < 50%
CC(=O)Nc1ccc(/C=C(\C#N)C(=O)Nc2nc(-c3ccccc3)cs2)cc1O [Preparative Example 223, (E)-3-(4-acetamido-3-hydroxyphenyl)-2-cyano-N-(4-phenylthiazol-2-yl)acrylamide] | 10 to 90 µM | < 50%
